Residues, ends and D or L forms follow the SMILES beside them. Bounds are passed on as bounds.

The text below walks through data of patent US5306620A, “Antibodies that bind to a ligand-induced binding site on integrin and induce integrin activation” (The Scripps Research Institute, priority 1990, dated 1994).

For assay [1], the target named is T1, αIIb β3 on A5 cells (Homo sapiens, UniProt P05106+P08514).
T1 construct: expressed in transfected cells
Nature of the assay: PAC1-binding assay (FACS) on A5 cells. Type of assay: cell-based. To be noted: for stimulation of PAC1 binding to A5 cells by platelet agonists: ADP 10 to 50 uM, thrombin 1 to 5 units/ml, epinephrine 4 to 200 uM, phorbol myristate acetate 5 to 500 nm, ionomycin 5 to 200 nM. How it is done:
(§1) Antibody binding to cells was analyzed by flow cytometry, also referred to as fluorescence-activated cell sorting (FACS). Cells for flow cytometric analysis were harvested with 3.5 mM EDTA and an aliquot of 5×10^5 cells was pelleted, resuspended in media or Tyrodes buffer containing a specific first antibody, and incubated for 20 minutes on ice with or without peptide ligands. Cells were pelleted, washed once, and incubated for 20 minutes with the second antibody, FITC-conjugated goat anti-mouse IgG (Tago, Burlingame, Calif.). Cells were then pelleted, resuspended in 0.5 ml media or Tyrodes and analyzed on a FACS IV analyzer (Becton-Dickinson, San Jose, Calif.).
To that end, PAC1 antibody was fluoresceinated with FICT as described by Taub et al., J. Biol. Chem., 264:259-265 (1989) to form FITC-PAC1 and used directly in flow cytometry. Briefly, 5×10^5 cells were harvested and resuspended to 50 ul in Tyrodes buffer [Frelinger et al., J. Biol. Chem., 265:6346-6352 (1990)]containing 10 ug/ml of FITC-PAC1 in the presence or absence of additional agonists. After a 30 minute incubation at 37 degrees, the samples were diluted to 0.5 ml with Tyrodes and analyzed by flow cytometry as described in Example 7.
To evaluate the capacity of a monoclonal antibody to activate (i.e., to increase specific ligand binding affinity of) the integrin GPIIb-IIIa, an assay was developed that measures PACT binding to GPIIb-IIIa bearing cells using the FACS analysis as described in Example 7.
In the PAC1-binding assay for integrin-activating antibody, the activating antibody was admixed with an integrin binding cell at a concentration of about 5 uM antibody. For GPIIb-IIIa, a suspension of cells was prepared as in Example 9, activating antibody was admixed at 5 uM and the admixture was maintained for 20 minutes on ice. Thereafter FITC-PAC1 was added as described in Example 9 and the FACS protocol followed as in Example 9 to measure PAC1 binding.

The target in assay [2] is T2, GPIIb-IIIa on platelets (Homo sapiens, UniProt P05106+P08514).
T2 construct: endogenous in cells; host or cells: platelets
As to the kind of experiment: PAC1-binding assay (FACS) on platelets. The assay is classed as cell-based. How it is done: as §1
In the PAC1-binding assay for integrin-activating antibody, the activating antibody was admixed with an integrin binding cell at a concentration of about 5 uM antibody.

In assay [3] the target is T3, αIIb β3 on fixed platelets (Homo sapiens, UniProt P05106+P08514).
T3 construct: To fix platelets, blood from a normal donor was centrifuged at 1,000 rpm; endogenous in cells; host or cells: platelets from blood of a normal donor, fixed with 0.1% paraformaldehyde
Nature of the assay: FITC-PAC1 binding to formaldehyde fixed platelets. Type of assay: cell-based. To be noted: 0.1% paraformaldehyde; PMA 50 nM, thrombin 1 unit/ml. How it is done: The data described in Examples 10 and 11 established that Fab fragments of the activating antibodies P41 or Ab62 activate A5 cells and platelets to express αIIb β3 dependent receptors for fluid phase Fg and PAC1. To determine if this activation required intracellular signal transduction events, the capacity of these Fabs to induce PACI binding to formaldehyde fixed platelets was measured.
To fix platelets, blood from a normal donor was centrifuged at 1,000 rpm for 20 minutes and the resulting platelet rich plasma incubated with 2 ug/ml PGE1 and 1 mM theophylline for 15 minutes at room temperature followed by a 15 minute room temperature incubation with 0.1% paraformaldehyde. Fixed or normal platelets were then analyzed for FITC-PAC1 binding as described above in Example 9 in the presence of platelet agonists, or activating antibody P41.

Assay [4] has as its target T1, αIIb β3 on A5 cells. As to the kind of experiment: Soluble 125I-fibrinogen binding to A5 cells. Type of assay: cell-based. How it is done: FIG. 4 illustrates the equilibrium binding of soluble fibrinogen (Fg) to Ab-62 stimulated (activated) A5 cells when measured as in Example 10. A5 cells at a concentration of 10^6 per ml were admixed with 6 uM of Sepharose-purified AB-62 and maintained at 22 C. for 30 minutes to activate the integrin. Iodinated Fg was then admixed in varying concentrations from 0.01 to 1 nM. After a 60 minute maintenance period, the bound ligand was separated from free ligand by centrifugation through 0.3 ml of 20% sucrose. The amount of radiolabelled ligand associated with the cell pellet was determined by gamma detection. Saturable binding was measured in three different experiments and plotted versus the input Fg concentration to obtain an averaged profile. A Scatchard replot of the binding data was made and is shown in the insert.
An independent measure of integrin activation was made by detecting the ability of a cell containing the integrin to bind soluble fibrinogen (Fg) that had been labelled with ^125 I. Fg was isolated and labelled with ^125 I by standard methods as described by Marguerie et al., J. Biol. Chem., 255:154-161 (1980) to form ^125 I-Fg. Thereafter, the binding of ^125 I-Fg to transfected cells was assayed as described previously for platelets [Marguerie et al., J. Biol. Chem., 255:154-161 (1980)]. Binding was initiated by the addition of cells to radiolabelled Fg and incubation at 37 degrees for 30 minutes. Bound ligand was separated from free ligand by centrifugation through 0.3 ml of 20% sucrose and the amount of radiolabelled ligand associated with the cell pellet determined by gamma detection.
Background binding in this assay detected about 30,000 molecules of Fg bound per integrin bearing cell, whereas maximum Ab-62 stimulated A5 cells bound about 95,000 molecules of Fg per cell.
Equilibrium binding of soluble Fg to Ab-62 stimulated (activated) A5 cells was carried out to better characterize Fg binding. […] A5 cells (10^6 per ml) were incubated with 6 uM Sepharose-purified Ab-62 for 30 minutes at 22 C. to activate the integrin. Thereafter ^125 I-Fg was admixed in varying concentrations from 0.01 to 1 nM. After 60 minutes, bound Fg was measured as described above after centrifugation of the cells through sucrose.
Saturable binding was measured in three different experiments and plotted versus the input Fg concentration to obtain average data which is shown in FIG. 4. A Scatchard replot of the binding data was also made and is shown in the inset to FIG. 4. The binding of the various concentrations of Fg to activated A5 cells at steady state was analyzed by use of the "Ligand" computer program. […] There was day to day variation in the quantity of αIIb β3 expressed as measured by the binding of the 2G12 antibody (150,000 to 440,000 sites/cell) as well as in the number of Fg receptors (138,000 to 360,000 sites/cell). The ratio of Fg receptors to αIIb β3 expressed per cell on a given day was 0.83±0.05, thus virtually all of the recombinant αIIb β3 was functional with respect to Fg binding.

Assay [5] addresses T4, solubilized αIIb β3 from platelets (Homo sapiens, UniProt P05106+P08514).
T4 construct: αIIb β3 was solubilized from platelets; endogenous in cells; host or cells: human platelets, octylglucoside lysate
Nature of the assay: Solution phase assay: 125I-Fg binding to solubilized αIIb β3. Type of assay: biochemical. On the procedure:
To determine if activating antibodies could activate αIIb β3 extracted away f rom the membrane milieu, the activating capacity to stimulate Fg binding in a solution phase was assayed. In this assay, αIIb β3 was solubilized from platelets, incubated in the presence or absence of activating monoclonal antibodies, and then bound to microtiter plates coated with a non-activating monoclonal anti β3 antibody.
The platelet pellet was resuspended and solubilized in ice cold 10 mM Hepes containing 150 mM NaCl, 50 mM octyl-B-D-glucoypyranoside (Calbiochem, La Jolla, Calif.) 1 mm PMSF, 50 ng/ml PGE, 1 mM CaCl2, 1 mM MgCl2, 50 uM leupeptin and 1 mg/ml N-ethylmaleimide (Sigma, St. Louis, Mo.) and centrifuged at 100,000 g for 30 minutes. […] The microtiter wells were incubated at 4 C. overnight, washed twice with a modified Tyrodes-Hepes buffer (2.5 mM Hepes, 150 mM NaCl, 2.5 mM KCl, 1 mM MgCl2, 12 mM NaHCO3, 5.5 mM D-glucose and 1 mg/ml BSA, pH 7.4) containing 50 MM octyl-B-D-glucopyranoside and 0.1 uM activating monoclonal antibody and then twice in Tyrodes-Hepes buffer only to form αIIb β3 -bound microtiter wells. […] Bound radioactivity was counted after 2 washes with Tyrodes-Hepes buffer.

For assay [6], the target named is T2, GPIIb-IIIa on platelets. As to the kind of experiment: 125I-anti-LIBS1 binding to platelets in the presence of fibrinogen. To be noted: ADP (10 uM) stimulated platelets, 125I-anti-LIBS1 Fab 0.8 uM, 37 C 30 minutes; read-out: concentration of fibrinogen required for a half-maximal increase in anti-LIBS1 binding. On the procedure: FIG. 1 illustrates anti-LIBS1 binding to platelets in the presence of ADP-stimulated fibrinogen as described in Example 4. Gel-filtered platelets (1 ×10^8 platelets/ml) were incubated with ^125 I-labeled anti-LIBS1 and varied concentrations of fibrinogen in the presence (ADP-stimulated) or absence (Control) of ADP (10 uM) for 30 minutes at 37 C. Platelet-bound radioactivity was separated from free by centrifuging the platelets through a layer of sucrose. Results are shown as the average of triplicate determinations +/ - one standard deviation.
Platelet rich plasma (PRP) was prepared as in Example 1A and divided into 2 aliquots. In one aliquot, the platelets were stimulated to express functional GPIIb-IIIa (fibrinogen receptors) by admixture of adenosine diphosphate (ADP) to a 10 uM final concentration to produce ADP-stimulatedplatelets. As a negative control, the second aliquot of PRP received no stimulus to produce non-stimulated platelets.
^125 I-labeled LIBSA (anti-LIBS1) Fab fragments, prepared by usual techniques from the ^125 I-labeled antibodies described in Example 2, were then admixed to a 0.8 uM final concentration with several samples of each of the PRP aliquots in the presence of varying concentrations of fibrinogen. […] The amount of ^125 I-anti LIBS1 associated with the pellet was then determined by gamma counting.

T1 sequence (P08514 32-887 limits assumed): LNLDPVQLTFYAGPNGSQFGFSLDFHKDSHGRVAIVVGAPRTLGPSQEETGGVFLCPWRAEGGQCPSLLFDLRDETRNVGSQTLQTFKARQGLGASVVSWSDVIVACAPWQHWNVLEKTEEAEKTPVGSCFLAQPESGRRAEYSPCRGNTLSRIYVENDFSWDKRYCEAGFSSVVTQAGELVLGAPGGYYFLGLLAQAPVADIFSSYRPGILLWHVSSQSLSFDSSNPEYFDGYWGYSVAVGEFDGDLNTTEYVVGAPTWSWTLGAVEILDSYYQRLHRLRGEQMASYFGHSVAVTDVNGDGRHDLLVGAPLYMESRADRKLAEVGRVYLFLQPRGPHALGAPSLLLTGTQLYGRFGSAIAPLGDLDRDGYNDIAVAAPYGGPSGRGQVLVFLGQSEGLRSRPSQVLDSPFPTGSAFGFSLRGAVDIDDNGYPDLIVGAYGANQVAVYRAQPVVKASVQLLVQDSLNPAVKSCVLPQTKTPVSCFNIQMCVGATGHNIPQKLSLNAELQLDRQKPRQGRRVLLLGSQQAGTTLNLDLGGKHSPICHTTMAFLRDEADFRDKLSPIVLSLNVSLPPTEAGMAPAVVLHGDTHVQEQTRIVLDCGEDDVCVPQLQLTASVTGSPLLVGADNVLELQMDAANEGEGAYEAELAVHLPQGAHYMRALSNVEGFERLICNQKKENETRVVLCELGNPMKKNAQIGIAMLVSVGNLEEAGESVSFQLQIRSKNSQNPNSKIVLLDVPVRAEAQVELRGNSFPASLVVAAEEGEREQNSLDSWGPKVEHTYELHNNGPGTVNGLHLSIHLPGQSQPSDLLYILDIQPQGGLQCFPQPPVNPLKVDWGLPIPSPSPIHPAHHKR
T1 sequence (P08514 891-1039 partner limits assumed): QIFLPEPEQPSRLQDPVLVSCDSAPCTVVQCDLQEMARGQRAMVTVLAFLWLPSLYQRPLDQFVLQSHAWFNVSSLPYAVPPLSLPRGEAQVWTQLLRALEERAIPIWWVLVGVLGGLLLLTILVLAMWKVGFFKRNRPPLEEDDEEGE
T1 sequence (P05106 27-788): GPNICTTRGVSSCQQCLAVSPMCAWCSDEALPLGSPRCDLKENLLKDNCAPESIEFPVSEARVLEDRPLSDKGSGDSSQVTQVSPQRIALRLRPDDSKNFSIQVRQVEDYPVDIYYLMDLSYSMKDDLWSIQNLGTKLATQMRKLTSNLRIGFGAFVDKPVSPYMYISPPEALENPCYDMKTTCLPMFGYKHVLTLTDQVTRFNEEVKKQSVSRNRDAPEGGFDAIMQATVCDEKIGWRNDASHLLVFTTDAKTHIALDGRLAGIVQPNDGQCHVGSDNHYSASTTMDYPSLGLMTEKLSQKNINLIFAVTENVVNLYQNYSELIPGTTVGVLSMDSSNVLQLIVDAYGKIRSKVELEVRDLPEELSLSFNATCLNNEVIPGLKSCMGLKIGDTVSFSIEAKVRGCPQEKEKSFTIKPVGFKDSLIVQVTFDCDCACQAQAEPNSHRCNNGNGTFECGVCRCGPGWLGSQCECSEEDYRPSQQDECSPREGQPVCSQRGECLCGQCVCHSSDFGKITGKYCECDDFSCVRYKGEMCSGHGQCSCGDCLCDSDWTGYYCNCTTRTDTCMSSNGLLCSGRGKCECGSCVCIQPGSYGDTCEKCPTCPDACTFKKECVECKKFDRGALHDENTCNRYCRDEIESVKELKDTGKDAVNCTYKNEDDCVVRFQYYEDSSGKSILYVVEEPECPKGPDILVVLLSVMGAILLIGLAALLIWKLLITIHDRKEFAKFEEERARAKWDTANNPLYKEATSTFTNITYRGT
T2 sequence (P08514 32-887 limits assumed): as the sequence (P08514 32-887 limits assumed) above
T2 sequence (P08514 891-1039 partner limits assumed): as the sequence (P08514 891-1039 partner limits assumed) above
T2 sequence (P05106 27-788): as the sequence (P05106 27-788) above
T3 sequence (P08514 32-887 limits assumed): as the sequence (P08514 32-887 limits assumed) above
T3 sequence (P08514 891-1039 partner limits assumed): as the sequence (P08514 891-1039 partner limits assumed) above
T3 sequence (P05106 27-788): as the sequence (P05106 27-788) above
T4 sequence (P08514 32-887 limits assumed): as the sequence (P08514 32-887 limits assumed) above
T4 sequence (P08514 891-1039 partner limits assumed): as the sequence (P08514 891-1039 partner limits assumed) above
T4 sequence (P05106 27-788): as the sequence (P05106 27-788) above

In the case of `C[C@H](CCC(=O)O)C[C@H](C)C[C@H](C)C(=O)/C=C(\O)[C@H](C)C[C@H](C)C/C=C/[C@@H](C)[C@@H](O)[C@@H](C)[C@@H](O)C[C@@H]1CC[C@@](C)([C@H]2CC[C@@](C)([C@@H](C)O)O2)O1` [ionomycin], the “stimulation of PAC1 binding to A5 cells by platelet agonists” value (“stimulation of PAC1 binding to A5 cells” for short) on αIIb β3 on A5 cells [1] is “failed to stimulate”.

On to PAC1, for which, at GPIIb-IIIa on platelets [2] (FITC-PAC1 10 ug/ml, no agonist), the “reaction of PAC1 with resting platelets” value is reported as “did not react”. Further, the “reaction of PAC1 with αIIb β3 in the A5 cell line” value at αIIb β3 on A5 cells [1] (FITC-PAC1 10 ug/ml, no agonist) was “did not react”.

On to `CCCCCCCCCCCCCC(=O)O[C@@H]1[C@@H](C)[C@@]2(O)[C@@H](C=C(CO)C[C@]3(O)C(=O)C(C)=C[C@@H]23)[C@@H]2C(C)(C)[C@]12OC(C)=O` [phorbol myristate acetate], for which the “PAC1 response after fixation of platelets” value in assay [3] is “completely abrogated”. At αIIb β3 on A5 cells [1], the “stimulation of PAC1 binding to A5 cells” value is given as “failed to stimulate”.

For `N=C(N)NCCC[C@H](NC(=O)CN)C(=O)NCC(=O)N[C@@H](CCC(=O)O)C(=O)N[C@@H](CO)C(=O)N1CCC[C@H]1C(=O)O` [GRGESP] (H-GRGESP-OH), the “inhibition of soluble 125I-Fg binding to activated A5 cells” value at αIIb β3 on A5 cells [4] was “not inhibited”.

Turning to `Nc1ncnc2c1ncn2[C@@H]1O[C@H](COP(=O)(O)OP(=O)(O)O)[C@@H](O)[C@H]1O` [ADP, adenosine diphosphate], the “PAC1 staining of agonist activated platelets” value at GPIIb-IIIa on platelets [2] (ADP activated platelets, FACS) is “stained brightly”. Further, the “stimulation of PAC1 binding to A5 cells” value at αIIb β3 on A5 cells [1] was “failed to stimulate”.

On to fibrinogen, for which the non-saturable binding on αIIb β3 on A5 cells [4] (Ab-62 activated A5 cells) was 2.2±0.4×10^-3. In addition, on αIIb β3 on A5 cells [4] (Ab-62 activated A5 cells, 10^6 per ml), the receptor concentration turned out to be 2.3 ± 0.3 nM. Moreover, the “Fg binding sites per cell” value on αIIb β3 on A5 cells [4] (Ab-62 activated A5 cells, Ligand program fit) is given as 138,000 sites/cell. On αIIb β3 on A5 cells [4] (Ab-62 stimulated A5 cells), the “reversibility of Fg binding” value was above 75% and the “time for Fg binding to reach steady state” value is at most 30 min. Besides, on αIIb β3 on A5 cells [4] (activated A5 cells, day to day variation), the “number of Fg receptors” value is reported as 138,000 to 360,000 sites/cell. The “ratio of Fg receptors to αIIb β3 expressed per cell” value at αIIb β3 on A5 cells [4] (on a given day) came out at 0.83±0.05. In assay [5], the “inhibition of Fg binding to stimulated captured receptor” value is on record as “inhibition”. Also, the EC50 on GPIIb-IIIa on platelets [6] is around 700 nM.

For the molecule thrombin, the “PAC1 response after fixation of platelets” value in assay [3] is on record as “completely abrogated”. For the same molecule, the “stimulation of PAC1 binding to A5 cells” value on αIIb β3 on A5 cells [1] is “failed to stimulate”.

In the case of `CNC[C@H](O)c1ccc(O)c(O)c1` [epinephrine], the “stimulation of PAC1 binding to A5 cells” value on αIIb β3 on A5 cells [1] is given as “failed to stimulate”.
